The subject of test [1] is Rattus norvegicus. Kind of test: Effect on helpless behavior in rats and the number of escape failures was determined in shuttle-box session-3 (SB-3) at 1 mg/kg dose. The test is classed as functional.
Test [2] deals with Mus musculus. Put plainly: Time-dependent effect on 8-OH-DPAT-induced hypothermia (change in body temperature) after 30 min, in mice at 0.5 mg/kg dose. Format: functional.
Test [3] has as its target T1, 5-hydroxytryptamine receptor 1A (Homo sapiens) (UniProt P08908).
T1 sequence (whole entry): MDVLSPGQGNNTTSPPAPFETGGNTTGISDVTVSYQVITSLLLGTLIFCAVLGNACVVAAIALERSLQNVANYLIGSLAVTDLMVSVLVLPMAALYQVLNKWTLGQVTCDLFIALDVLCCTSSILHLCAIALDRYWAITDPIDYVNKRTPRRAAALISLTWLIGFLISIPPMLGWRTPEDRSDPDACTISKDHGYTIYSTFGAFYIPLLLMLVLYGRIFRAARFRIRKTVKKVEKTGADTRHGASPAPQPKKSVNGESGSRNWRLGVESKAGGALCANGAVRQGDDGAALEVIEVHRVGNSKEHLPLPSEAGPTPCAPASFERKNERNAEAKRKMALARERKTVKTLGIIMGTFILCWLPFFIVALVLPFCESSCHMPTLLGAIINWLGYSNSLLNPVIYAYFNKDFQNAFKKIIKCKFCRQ
Particulars: HeLa.
Description: Effect on Forskolin-Stimulated cAMP formation, in HeLa cells transfected with the 5-HT 1A receptor at 1 uM concentration

Test [4] deals with T2, 5-hydroxytryptamine receptor 1A (Rattus norvegicus, UniProt P19327).
T2 sequence (P19327 whole entry): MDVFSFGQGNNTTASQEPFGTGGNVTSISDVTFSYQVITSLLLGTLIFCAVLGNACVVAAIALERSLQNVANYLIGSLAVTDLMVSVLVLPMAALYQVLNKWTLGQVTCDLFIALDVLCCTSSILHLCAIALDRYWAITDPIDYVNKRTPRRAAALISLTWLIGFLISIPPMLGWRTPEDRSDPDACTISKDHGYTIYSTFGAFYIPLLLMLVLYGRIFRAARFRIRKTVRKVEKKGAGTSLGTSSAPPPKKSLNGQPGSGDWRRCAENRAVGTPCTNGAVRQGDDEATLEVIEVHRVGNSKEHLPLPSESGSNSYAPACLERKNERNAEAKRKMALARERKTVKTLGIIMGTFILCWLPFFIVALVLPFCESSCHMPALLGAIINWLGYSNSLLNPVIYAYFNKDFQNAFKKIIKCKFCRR
Kind of test: Binding affinity to 5-hydroxytryptamine 1A receptor (5-HT 1A receptor, serotonin receptor) from rat cortex using [3H]8-OH-DPAT as radioligand.

Test [5] concerns Mus musculus. Kind of test: Effect on immobility time in the forced swimming test (FST) in mice at 0.1 mg/kg dose. Format: functional.
Test [6] deals with Mus musculus. Put plainly: Time-dependent effect on 8-OH-DPAT-induced hypothermia (change in body temperature) after 15 min, in mice at 5 mg/kg dose. The test is classed as functional.
In test [7] the test system is Mus musculus. Kind of test: Time-dependent effect on 8-OH-DPAT-induced hypothermia (change in body temperature) after 30 min, in mice at 0.1 mg/kg dose. The test is classed as functional.
The test system of test [8] is Mus musculus. Kind of test: Time-dependent effect on 8-OH-DPAT-induced hypothermia (change in body temperature) after 60 min, in mice at 0.1 mg/kg dose. Format: functional.
The target in test [9] is Muscarinic acetylcholine receptor. Kind of test: Affinity at muscarinic receptor from rat cortex using [3H]-QNB as radioligand (For atropine Ki(nM)= 3.5+/-0.3).
In test [10] the target is T3, 5-hydroxytryptamine receptor 3A (Rattus norvegicus, UniProt P35563).
T3 sequence (P35563 whole entry): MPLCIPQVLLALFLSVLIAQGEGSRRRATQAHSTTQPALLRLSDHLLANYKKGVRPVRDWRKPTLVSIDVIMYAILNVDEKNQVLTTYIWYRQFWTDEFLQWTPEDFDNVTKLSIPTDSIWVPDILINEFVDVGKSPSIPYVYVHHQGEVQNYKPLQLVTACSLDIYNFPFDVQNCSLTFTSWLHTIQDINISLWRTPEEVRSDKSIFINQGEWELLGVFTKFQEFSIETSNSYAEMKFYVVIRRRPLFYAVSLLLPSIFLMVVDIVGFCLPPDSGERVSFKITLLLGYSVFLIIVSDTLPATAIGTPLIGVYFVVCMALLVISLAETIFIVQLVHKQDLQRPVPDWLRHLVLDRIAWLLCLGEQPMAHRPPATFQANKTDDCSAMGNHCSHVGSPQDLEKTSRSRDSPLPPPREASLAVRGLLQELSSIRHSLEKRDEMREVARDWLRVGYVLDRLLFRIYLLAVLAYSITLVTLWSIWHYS
Kind of test: Affinity at 5-hydroxytryptamine 3 receptor from rat frontal cortex using [3H]granisetron as radioligand (For granisetron = Ki(nM)=0.3+/-0.01). The test is classed as tissue-based.

pKi: −log10 of the molar value.

By pKi is commonly meant the negative decadic logarithm of the Ki, by convention in mol/L. Broadly, the Ki is the equilibrium dissociation constant of an inhibitor or competing ligand from its target. Higher therefore signals lower affinity.

As for `COc1ccccc1N1CCN(CCC(=O)c2csc3ccccc23)CC1`, the “No. of escape failures” value in test [1] was below 2.8. Further, the Temperature change in [2] was below -0.86 °C; in test [6] it was -2.53 °C; in [7] it was -1.66 °C; in [8], -1.13 °C. In test [3], this compound gave a cAMP of 27 pmol/well. Further, the pKi in test [4] is 7.36. For the same compound, in test [5], the Immobility time is listed as 141.4 s.

Regarding `COc1ccccc1N1CCN(CCC(O)c2csc3ccccc23)CC1` (configuration not stated), the Temperature change in [2] is -1.38 °C; in test [6] it was -2.2 °C; in test [7], -1.3 °C; in [8] it was -0.4 °C. For the same compound, the Ki in test [9] is recorded as above 5000 nM. The cAMP in [3] stood at 19.1 pmol/well. In addition, the values for the pKi in test [4] (read-out: Ki) and in test [10] were 7.70 and below 5.30, respectively. The same compound yielded an Immobility time in [5] below 99.5 s.

Take `COc1ccccc1N1CCN(CCC(Oc2cccc3ccccc23)c2ccsc2)CC1` (configuration not stated): the “No. of escape failures” value in test [1] came to 0.5. In addition, the Temperature change in test [2] is -1.35 °C; in [6], -2.73 °C; in [7], -1.54 °C; in [8] it was -1.16 °C. This compound also yielded a Ki in test [9] above 5000 nM. This compound also displayed a cAMP in test [3] of 28.5 pmol/well. Moreover, the figures for the negative logarithm of the Ki (pKi) in [4] (read-out: Ki) and in test [10] were 6.74 and below 5.30, respectively. Further, in test [5], the Immobility time worked out at 194.4 s.

(Values after ChEMBL document CHEMBL1134339, “New 1-aryl-3-(4-arylpiperazin-1-yl)propane derivatives, with dual action at 5-HT1A serotonin receptors and serotonin transporter, as a new class of antidepressants” (J Med Chem, 2001).)
